Experimental data from PMC5458211, “Mitochondrial VDAC1-based peptides: Attacking oncogenic properties in glioblastoma” (Oncotarget, 2017).
Non-standard residues stand in square brackets, D forms with d. Residues, ends and D or L forms follow the SMILES beside them.

Key:
U-87MG cells = experiment: Apoptosis by acridine orange/ethidium bromide staining, U-87MG; format: cell-based, human; details: 3 h, mean ± SE (n=3), DMSO control 9.8 ± 5.3
Description: Figure 2 Mode of action of VDAC1-based peptides – interacting with- and detaching HK, releasing Cyto c, decreasing ATP level and inducing apoptosis A. Purified HK-II was fluorescently labeled using the NanoTemper protein-labeling Kit BLUE. […] Then, 3-5 μl of the samples were loaded into MST-grade glass capillaries and thermophoresis was measured using a Monolith-NT115 apparatus, as described in Materials and methods available online in Supplemental information. […] The final DMSO concentration in control and peptide-treated cells was 0.07%. Fixed cells were visualized using confocal microscopy (Olympus 1×81), as described in Materials and Methods available online in Supplemental information. Arrows indicate cells with diffusion of HK-I-GFP. C. […] Anti-GAPDH antibodies were used to verify the cytosolic extracts. The levels of HK in the supernatants were quantified and are presented as relative units. D. D-ΔN-Ter-Antp induces mitochondrial inner membrane depolarization analyzed as described in Materials and Methods available online in Supplemental information. U-87MG cells were incubated for 3 h with the indicated concentrations of D-ΔN-Ter-Antp or with FCCP (1 h, 25 μM). Cells then were analyzed for Δψ using TMRM. Δψ is presented as percentage of control. Results = mean ± SE (n=3) (*** p≤0.001, ****p ≤0.0001). […] Cellular ATP levels are presented as percentage of control. Results = mean ± SE (n=2 or 3) (* p≤0.05, ** p≤0.01). […] Release of Cyto c from the mitochondria was analyzed by immunostaining using anti-Cyto c antibodies and confocal microscopy (Olympus 1×81) as described in Materials and Methods available online in Supplemental information. Arrows indicate cells showing diffusion of Cyto c. […] Arrows and arrowheads indicate cells with membrane blebbing (early apoptotic state) and late apoptotic states, respectively. Quantification of apoptosis in control and peptide's treated cells are presented bellow the images. Results = mean ± SE (n=3) (** p≤0.01, *** p≤0.001, **** p≤0.0001).
(§1) Cells (6×10^5 /ml) were incubated in 500 μl serum-free medium with the peptide of interest for 6 h at 37°C in the presence of 5% CO2. The cells were then trypsinized, centrifuged (1500xg, 5 min), washed with PBS and analyzed for cell death using propidium iodide (PI) staining and flow cytometer (Beckton-Dickinson, San Jose, CA) and BD CellQuest Pro software. Apoptotic cell death was also analyzed by PI and annexin V-FITC staining, and by acridine orange and ethidium bromide staining and light microscopy (Olympus LX2-KSP).

[1] = test system: Cyto c release in U-87MG cells; experiment: Cytochrome c release by immunofluorescence; format: cell-based, human; details: 10 μM, 3 h, serum-free medium
Description: (§2) Figure 2 Mode of action of VDAC1-based peptides – interacting with- and detaching HK, releasing Cyto c, decreasing ATP level and inducing apoptosis A. Purified HK-II was fluorescently labeled using the NanoTemper protein-labeling Kit BLUE. […] Then, 3-5 μl of the samples were loaded into MST-grade glass capillaries and thermophoresis was measured using a Monolith-NT115 apparatus, as described in Materials and methods available online in Supplemental information. […] The final DMSO concentration in control and peptide-treated cells was 0.07%. Fixed cells were visualized using confocal microscopy (Olympus 1×81), as described in Materials and Methods available online in Supplemental information. […] The levels of HK in the supernatants were quantified and are presented as relative units. D. D-ΔN-Ter-Antp induces mitochondrial inner membrane depolarization analyzed as described in Materials and Methods available online in Supplemental information. […] Cells then were analyzed for Δψ using TMRM. Δψ is presented as percentage of control. […] Release of Cyto c from the mitochondria was analyzed by immunostaining using anti-Cyto c antibodies and confocal microscopy (Olympus 1×81) as described in Materials and Methods available online in Supplemental information. […] Quantification of apoptosis in control and peptide's treated cells are presented bellow the images. […]

GL-261MG cells = experiment: Cell death by PI staining and flow cytometry, GL-261MG; format: cell-based; details: mouse glioblastoma, 6 h at 37°C, serum-free medium, Suppl Fig 1
Description: as §1, with “LX2-KSP). […]” for “LX2-KSP).”
(§3) was subsequently visualized by incubating with DAB. […]
(§4) Supplementary Figure 1: VDAC1-based peptides induce dramatic cell death of several brain tumor-derived cell […]
(§5) Ter-Antp (●) peptide in serum-free appropriate growth medium for 6 h at 37°C. Cells were harvested, washed twice with PBS and cell death was analyzed by propidium iodide (PI) staining and ﬂow cytometry. D. Summary of IC50 values (μM) for the peptides with the indicated […]
(§6) (also on this page, place not known: www.impactjournals.com/oncotarget/ Oncotarget, Materials 2017 V , Supplementary) […]

SH-SY5Y cells = experiment: Cell death by PI staining and flow cytometry, SH-SY5Y; format: cell-based; details: human neuroblastoma, 6 h at 37°C, serum-free medium, Suppl Fig 1
Description: as §1, with “LX2-KSP). […]” for “LX2-KSP).”
as §3, §4, §5, §6

Neuro-2a cells = experiment: Cell death by PI staining and flow cytometry, Neuro-2a; format: cell-based; details: mouse neuroblastoma, 6 h at 37°C, serum-free medium, Suppl Fig 1
Description: as §1, with “LX2-KSP). […]” for “LX2-KSP).”
overnight at 4°C with primary antibodies (sources and After rinsing in water, the sections were counter-stained dilutions used detailed in Table S2) and washed with hematoxylin, and mounted with mounting medium.
PBST. For IHC, endogenous peroxidase activity was Finally, the sections were observed under a microscope blocked by incubating the sections in 3% H2O2 for 15 min. (Leica DM2500) and images were collected at 20× After washing thoroughly with PBST, the sections were magnification with the same light intensity and exposure incubated with the appropriate secondary antibodies for 2 time. Non-specific control experiments were carried out h. […]
Ter-Antp (●) peptide in serum-free appropriate growth medium for 6 h at 37°C. Cells were harvested, washed twice with PBS and cell death was analyzed by propidium iodide (PI) staining and ﬂow cytometry. […]

HK-I-GFP = HK-I-GFP detachment from mitochondria by confocal microscopy, U-87MG; format: cell-based, human; details: 7 μM, 3 h, serum-free medium
Description: as §2

SMILES: CC[C@@H](C)[C@@H](NC(=O)[C@@H](CCCCN)NC(=O)[C@H](NC(=O)[C@@H](CCC(N)=O)NC(=O)[C@@H](CCCNC(=N)N)NC(=O)[C@@H](CC(C)C)NC(=O)CNC(=O)[C@@H](Cc1ccccc1)NC(=O)CNC(=O)[C@@H](Cc1ccc(O)cc1)NC(=O)CNC(=O)[C@@H](CCCCN)NC(=O)[C@H](NC(=O)[C@@H](Cc1ccccc1)NC(=O)[C@H](NC(=O)[C@@H](CC(=O)O)NC(=O)[C@H](N)CCCNC(=N)N)C(C)C)[C@H](C)O)[C@H](C)CC)C(=O)N[C@H](Cc1c[nH]c2ccccc12)C(=O)N[C@H](Cc1ccccc1)C(=O)N[C@H](CCC(N)=O)C(=O)N[C@H](CC(N)=O)C(=O)N[C@H](CCCNC(=N)N)C(=O)N[C@H](CCCNC(=N)N)C(=O)N[C@H](CCSC)C(=O)N[C@H](CCCCN)C(=O)N[C@H](Cc1c[nH]c2ccccc12)C(=O)N[C@H](CCCCN)C(=O)N[C@H](CCCCN)C(=O)O [D-ΔN-Ter-Antp] (H-[dR][dD][dV][dF][dT][dK]G[dY]G[dF]G[dL][dR][dQ][dI][dK][dI][dW][dF][dQ][dN][dR][dR][dM][dK][dW][dK][dK]-OH; N-terminus and C-terminus assumed)
- Apoptosis, % (U-87MG cells; 3 μM): 45.4 ± 2.6%
- Apoptosis, % (U-87MG cells; 5 μM): 63.4 ± 3.8%
- Cyto c release [1]: partial Cyto c release
- cell death, GL-261MG (GL-261MG cells): effectively induce cell death
- cell death, SH-SY5Y (SH-SY5Y cells): effectively induce cell death
- cell death, Neuro-2a (Neuro-2a cells): effectively induce cell death
- HK-I-GFP detachment (fluorescence distribution) (HK-I-GFP): became diffuse

SMILES: CC[C@H](C)[C@H](NC(=O)[C@H](C)NC(=O)[C@@H](N)Cc1c[nH]cn1)C(=O)N[C@@H](Cc1ccc(O)cc1)C(=O)N1CCC[C@H]1C(=O)N[C@@H](CCCNC(=N)N)C(=O)N[C@@H](Cc1c[nH]cn1)C(=O)N[C@@H](CO)C(=O)N[C@@H](Cc1c[nH]c2ccccc12)C(=O)N[C@H](C(=O)N[C@@H](Cc1c[nH]c2ccccc12)C(=O)N[C@@H](CCC(=O)O)C(=O)N[C@H](CCCCN)C(=O)N[C@H](CCCCN)C(=O)N[C@H](CC(C)C)C(=O)N[C@H](CCC(=O)O)C(=O)N[C@@H](C(=O)N[C@H](C)C(=O)N[C@@H](C(=O)N[C@H](CC(N)=O)C(=O)N[C@H](CC(C)C)C(=O)N[C@H](C)C(=O)N[C@H](Cc1c[nH]c2ccccc12)C(=O)N[C@@H](C(=O)N[C@H](C)C(=O)NCC(=O)N[C@H](CC(N)=O)C(=O)N[C@H](CO)C(=O)N[C@H](CC(N)=O)C(=O)N[C@@H](CCCCN)C(=O)N[C@@H](Cc1c[nH]c2ccccc12)C(=O)N[C@H](C(=O)N[C@@H](Cc1c[nH]c2ccccc12)C(=O)N[C@@H](CCCCN)C(=O)O)[C@@H](C)O)[C@H](C)O)C(C)C)[C@H](C)O)[C@@H](C)O [Tf-D-LP4]
- Apoptosis, % (U-87MG cells; 3 μM): 55.8 ± 1.0%
- Apoptosis, % (U-87MG cells; 5 μM): 73.9 ± 5.7%
- Cyto c release [1]: partial Cyto c release
- cell death, GL-261MG (GL-261MG cells): effectively induce cell death
- cell death, SH-SY5Y (SH-SY5Y cells): effectively induce cell death
- cell death, Neuro-2a (Neuro-2a cells): effectively induce cell death
- HK-I-GFP detachment (fluorescence distribution) (HK-I-GFP): became diffuse
